Assay results published in US6156724A, “Uses of didemnins as immunomodulating agents” (priority 1998, dated 2000).
Numbered stars: 1 amine (or outer) side, 2 acyl side, 3 side chain; on linkers, the order of the positions; unused ones are H or OH. Bridge positions count the residues as written; N and C are the ends. Square brackets hold non-standard residues; d marks the D form. Peptide text beside a SMILES is read from it. * marks the point of attachment. X4 = CC[C@H](C)[C@@H](N[*:1])[C@@H](O)CC(=O)O[C@@H](C(C)C)[C@H](O)[C@H](C)C(=O)[*:2]; X2 = CC[C@H](C)[C@@H](N[*:1])[C@@H](O)CC(=O)O[C@@H](C(=O)[C@H](C)C(=O)[*:2])C(C)C; X1 = CC[C@H](C)[C@@H](N[*:1])[C@@H](O)CC(=O)O[C@H](C(=O)[C@H](C)C(=O)[*:2])C(C)C; X7 = CCC(C)C(N[*:1])C(O)CC(=O)OC(C(=O)C(C)C(=O)[*:2])C(C)C; NMeY = CN[CH](Cc1ccc(O)cc1)C(=O)O; dNMeL = CN[C@H](CC(C)C)C(=O)O; NMeL = CN[CH](CC(C)C)C(=O)O; Pentanoyl = CCCCC(=O)*; Propionyl = CCC(=O)*; Butyryl = CCCC(=O)*

Legend:
[1] = test system: Balb/c splenocytes (resting lymphocytes); experiment: Lymphocyte viability (LcV) assay; assay type: cell-based, murine; conditions: unstimulated Balb/c splenocytes, MTT
Procedure: Forty two (42) didemnin compounds (see Table 1) were evaluated for cytotoxicity to one of the lymphocyte populations in the MLR (i.e., Balb/c splenocytes). The purpose of the lymphocyte viability assay (LcV) is to measure metabolic activity in lymphocytes after they have been exposed to the compounds for the duration of an under conditions equivalent to the MLR. The inverse of the data yields cytotoxicity information about the compounds on murine lymphocytes. The rationale of using resting cells, in this case unstimulated lymphocytes, to measure cytotoxicity has a strategic importance. In the MLR the heterogenous cell populations are predominantly resting cells when the assay begins.
Test compounds were prepared in two sets as described above. Splenocytes were prepared as described previously from one murine strain (Balb/c), and a volume of 200 μL of the cell suspension was added to one set of test compounds and control wells.
Assay plates were incubated as in the MLR and then pulsed overnight 75 μL per well MTT-thiazolyl blue solution (150 μg). The plates were decanted and the resulting insoluble formazan crystals were dissolved in 200 μL of isopropyl alcohol. Absorbance at 570 nm was measured.
The LcV data were calculated as a percentage of basal metabolic activity, or percent viability, relative to BALB/c control, and an LC50 value was interpolated for each test compound.

[2] = test system: murine splenocytes (Balb/c and C57B1/6); experiment: Two-way mixed lymphocyte reaction (MLR) assay; conditions: Balb/c + C57B1/6 splenocytes, 96 h, [3H]thymidine; for IC50: read-out: two-way mixed lymphocyte reaction (MLR) suppression MLR, IC50;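 for all read-outs here: proliferation read as tritiated thymidine incorporation into newly made DNA after an overnight pulse, expressed as percent of control activity, IC50 interpolated per compound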
[3] = test system: concanavalin A-induced lymphoblasts (Con A splenocytes); experiment: Lymphoblast viability (LbV) assay; conditions: Con A-stimulated splenocytes (lymphoblasts), MTT

| Structure (SMILES) | cytoxicity to lymphocytes LcV, LC50 [1] | cytoxicity to lymphocytes LcV, LC50 ([1]; highest concentration 10 μg/mL) | two-way mixed lymphocyte reaction (MLR) suppression MLR, IC50 [2] | IC50 [2] | cytotoxicity to lymphocytes LbV, LC50 [3] |
| --- | --- | --- | --- | --- | --- |
| CC[C@H](C)[C@H]1NC(=O)[C@@H](NC(=O)[C@@H](CC(C)C)NC)[C@@H](C)OC(=O)[C@H](Cc2ccc(OC)cc2)N(C)C(=O)[C@@H]2CCCN2C(=O)[C@H](CC(C)C)NC(=O)[C@@H](C)C(=O)[C@H](C(C)C)OC(=O)C[C@@H]1OC(C)=O [Compound 7, O-Acetyldidemnin A] | > 10000 nM | > 10000 ng/mL | 100 ng/mL | 100 nM | 77 nM |
| CC[C@H](C)[C@H]1NC(=O)[C@@H](NC(=O)[C@@H](CC(C)C)NC)[C@@H](C)OC(=O)[C@H](Cc2ccc(OC)cc2)N(C)C(=O)[C@@H]2CCCN2C(=O)[C@H](CC(C)C)NC(=O)[C@@H](C)[C@@H](O)[C@H](C(C)C)OC(=O)C[C@@H]1O [Compound 10, [(2S,3R,4S)-H2 Hip^3]Didemnin A] (H-[dNMeL]T[X4]LP[NMeY](Me); ester 2-C) | > 10600 nM | > 10000 ng/mL | 29.0 ng/mL | 30.5 nM | 460 nM |
| CC[C@H](C)[C@H]1NC(=O)[C@@H](NC(=O)[C@@H](CC(C)C)N(C)C(=O)[C@@H]2CCCN2C(=O)[C@H](C)O)[C@@H](C)OC(=O)[C@H](Cc2ccc(OC)cc2)N(C)C(=O)[C@@H]2CCCN2C(=O)[C@H](CC(C)C)NC(=O)[C@@H](C)C(=NO)[C@H](C(C)C)OC(=O)C[C@@H]1O [Compound 11, [Hip^3 oxime]Didemnin B] | > 8900 nM | > 10000 ng/mL | 0.96 ng/mL | 0.85 nM | 1.7 nM |
| CC[C@H](C)[C@H]1NC(=O)[C@@H](NC(=O)[C@@H](CC(C)C)NC)[C@@H](C)OC(=O)[C@H](Cc2ccc(OC)cc2)N(C)C(=O)[C@@H]2CCCN2C(=O)[C@H](CC(C)C)NC(=O)[C@@H](C)C(=O)[C@@H](C(C)C)OC(=O)C[C@@H]1O [Compound 12, Epididemnin A1] (H-[dNMeL]T[X2]LP[NMeY](Me); ester 2-C) | > 10600 nM | > 10000 ng/mL | 81.0 ng/mL | 86 nM | 51 nM |
| CC[C@H](C)[C@H]1NC(=O)[C@@H](NC(=O)[C@@H](CC(C)C)N(C)C(=O)[C@@H]2CCCN2C(=O)[C@H](C)O)[C@@H](C)OC(=O)[C@H](Cc2ccc(O)cc2)NC(=O)[C@@H]2CCCN2C(=O)[C@H](CC(C)C)NC(=O)[C@@H](C)C(=O)[C@H](C(C)C)OC(=O)C[C@@H]1O [Compound 13, Didemnin N] | > 9200 nM | > 10000 ng/mL | 37.0 ng/mL | 34.2 nM | 210 nM |
| CC[C@H](C)[C@H]1NC(=O)[C@@H](NC(=O)[C@@H](CC(C)C)N(C)C(=O)[C@@H]2CCCN2C(=O)[C@H](C)O)[C@@H](C)OC(=O)[C@H](Cc2ccc(OC)c(I)c2)N(C)C(=O)[C@@H]2CCCN2C(=O)[C@H](CC(C)C)NC(=O)[C@@H](C)C(=O)[C@H](C(C)C)OC(=O)C[C@@H]1O [Compound 14, Iododidemnin B] | > 8100 nM | > 10000 ng/mL | 0.81 ng/mL | 0.66 nM | 0.82 nM |
| CC[C@H](C)[C@H]1NC(=O)[C@@H](NC(=O)[C@@H](CC(C)C)N(C)C(=O)[C@@H]2CCCN2C(=O)[C@H](C)O)[C@@H](C)OC(=O)[C@H](CC2CCCCC2)N(C)C(=O)[C@@H]2CCCN2C(=O)[C@H](CC(C)C)NC(=O)[C@@H](C)C(=O)[C@H](C(C)C)OC(=O)C[C@@H]1O [Compound 16, [H6 -N-MePhe^6]Didemnin B] | > 9200 nM | > 10000 ng/mL | 0.57 ng/mL | 0.52 nM | 0.73 nM |
| CC[C@H](C)[C@@H](NC(=O)[C@@H](NC(=O)[C@@H](CC(C)C)NC)[C@@H](C)O)[C@@H](O)CC(=O)O[C@H](C(=O)[C@H](C)C(=O)N[C@@H](CC(C)C)C(=O)N1CCC[C@H]1C(=O)N(C)[C@@H](Cc1ccc(OC)cc1)C(=O)O)C(C)C [Compound 17, Acyclodidemnin A] (H-[dNMeL]T[X1]LP[NMeY](Me)-OH) | > 10400 nM | > 10000 ng/mL | 0.54 ng/mL | 0.57 nM | 240 nM |
| CC[C@H](C)[C@H]1NC(=O)[C@@H](NC(=O)[C@@H](CC(C)C)N(C)C(C)=O)[C@@H](C)OC(=O)[C@H](Cc2ccc(OC)cc2)N(C)C(=O)[C@@H]2CCCN2C(=O)[C@H](CC(C)C)NC(=O)[C@@H](C)C(=O)[C@H](C(C)C)OC(=O)C[C@@H]1O [Compound 18, N^α -Acetyldidemnin A] (Ac-[dNMeL]T[X1]LP[NMeY](Me); ester 2-C) | > 10000 nM | > 10000 ng/mL | 0.027 ng/mL | 0.027 nM | 0.39 nM |
| CCC(=O)N(C)[C@H](CC(C)C)C(=O)N[C@@H]1C(=O)N[C@H]([C@@H](C)CC)[C@@H](O)CC(=O)O[C@@H](C(C)C)C(=O)[C@H](C)C(=O)N[C@@H](CC(C)C)C(=O)N2CCC[C@H]2C(=O)N(C)[C@@H](Cc2ccc(OC)cc2)C(=O)O[C@@H]1C [Compound 19, N^α -Propionyldidemnin A] (Propionyl-[dNMeL]T[X1]LP[NMeY](Me); ester 2-C) | 6500 nM | 6500 ng/mL | 0.37 ng/mL | 0.37 nM | 0.068 nM |
| CCCC(=O)N(C)C(CC(C)C)C(=O)NC1C(=O)NC(C(C)CC)C(O)CC(=O)OC(C(C)C)C(=O)C(C)C(=O)NC(CC(C)C)C(=O)N2CCCC2C(=O)N(C)C(Cc2ccc(OC)cc2)C(=O)OC1C (stereo not drawn) [Compound 20, N^α -n-Butyryldidemnin A] (Butyryl-[NMeL]T[X7]LP[NMeY](Me); ester 2-C; configuration not given here) | 99 nM | – | 0.30 ng/mL | 0.3 nM | 0.074 nM |
| CCCCC(=O)N(C)[C@H](CC(C)C)C(=O)N[C@@H]1C(=O)N[C@H]([C@@H](C)CC)[C@@H](O)CC(=O)O[C@@H](C(C)C)C(=O)[C@H](C)C(=O)N[C@@H](CC(C)C)C(=O)N2CCC[C@H]2C(=O)N(C)[C@@H](Cc2ccc(OC)cc2)C(=O)O[C@@H]1C [Compound 21, N^α -Pentanoyldidemnin A] (Pentanoyl-[dNMeL]T[X1]LP[NMeY](Me); ester 2-C) | 9700 nM | > 10000 ng/mL | 0.48 ng/mL | 0.48 nM | 0.059 nM |
